From ChEMBL document CHEMBL5325414, “Novel neuroprotective pyromeconic acid derivatives with concurrent anti-Aβ deposition, anti-inflammatory, and anti-oxidation properties for treatment of Alzheimer's disease” (Eur J Med Chem, 2023)
Activity calls are given as the source filed them. The rule behind the calls is not given here.

Tests used:
[1] = molecular target: T1, Amyloid-beta precursor protein (Homo sapiens, UniProt P05067); assay: Inhibition of amyloid beta (1 to 42) (unknown origin) self aggregation assessed as disaggregation relative to control; design: concentration or dose not given beside the values; settings: concentration not given here
[2] = Metal chelating activity assessed as compound-K+ complex formation by optical shift at 50 uM in PBS buffer 7.4 by UV-vis spectrometric analysis
[3] = molecular target: T1, Amyloid-beta precursor protein; assay: Inhibition of amyloid beta (1 to 42) (unknown origin) self aggregation assessed as decrease in number of amyloid beta fibrils at 50 uM for 24 hrs
[4] = molecular target: T1, Amyloid-beta precursor protein; assay: Inhibition of amyloid beta (1 to 42) (unknown origin) self aggregation assessed as shorter in amyloid fibrils compound addition at 50 uM after fibrilation for 24 hrs
[5] = molecular target: T1, Amyloid-beta precursor protein; assay: Inhibition of Cu2+ induced amyloid beta (1 to 42) (unknown origin) aggregation assessed as depolymerization at 50 uM for 24 hrs by TEM analysis
BV-2 [6] = assay: Neuroprotective activity against amyloid beta (1 to 42) induced neurotoxicity in mouse BV-2 cells assessed as survival of cells treated for 24 hrs; format: functional, cell-based; settings: dose 2.5-10 µM
BV-2 [7] = assay: Effect of amyloid beta (1 to 42) indued apoptosis in mouse BV-2 cells assessed as viable cells at 2.5 uM measured by propidium iodide staining based flow cytometric analysis (reference value: 61.29%); format: functional; settings: read-out: Activity
BV-2 [8] = assay: Effect of amyloid beta (1 to 42) indued apoptosis in mouse BV-2 cells assessed as early apoptotic cells at 2.5 uM measured by propidium iodide staining based flow cytometric analysis (reference value: 26.12%); format: functional
BV-2 [9] = assay: Effect of amyloid beta (1 to 42) indued apoptosis in mouse BV-2 cells assessed as late apoptotic cells at 5 uM measured by propidium iodide staining based flow cytometric analysis (reference value: 6.88%); format: functional
[10] = Cmax in Sprague-Dawley rat at 15 mg/kg, IG; format: ADME, organism-based; design: dose 15 mg/kg, route ig; settings: in vivo, po
[11] = AUC(0 to t) in Sprague-Dawley rat at 15 mg/kg, IG; format: ADME, organism-based; design: dose 15 mg/kg, route ig; settings: in vivo, po
[12] = Drug concentration in hippocampus of Sprague-Dawley rat at 15 mg/kg, IG measured after 0.167 hrs; format: ADME, organism-based; settings: po, read-out: Drug uptake
[13] = Drug concentration in hippocampus of Sprague-Dawley rat at 15 mg/kg, IG measured after 0.5 hrs; format: ADME, organism-based; settings: po, read-out: Drug uptake
[14] = Drug concentration in hippocampus of Sprague-Dawley rat at 15 mg/kg, IG measured after 1 hrs; format: ADME, organism-based; settings: po, read-out: Drug uptake
[15] = Drug concentration in hippocampus of Sprague-Dawley rat at 15 mg/kg, IG measured after 4 hrs; format: ADME, organism-based; settings: po, read-out: Drug uptake
[16] = Ratio of drug concentration in hippocampus to plasma of Sprague-Dawley rat at 15 mg/kg, IG measured after 2 hrs; format: ADME, organism-based; settings: po
[17] = Acute toxicity in mouse assessed as change in behaviour at 2000 mg/kg, IG administered as single dose measured after 14 days; format: organism-based; settings: in vivo, po, 336 h, time 14 day
[18] = Acute toxicity in mouse assessed as histopathological change in liver at 2000 mg/kg, IG administered as single dose measured after 14 days measured by H and E staining analysis; format: organism-based; settings: in vivo, po, 336 h, time 14 day
Mus musculus [19] = assay: Neuroprotective effect in scopolamine induced cognitively impaired mouse assessed as decrease in neuronal damage in CA1 region at hippocampus at 20 mg/kg by immunofluorescence staining analysis; format: functional, organism-based
Mus musculus [20] = assay: In vivo effect on NRF2 expression in scopolamine induced cognitive impaired mouse assessed as reversal of NRF2 signalling in hippocampus treated at 20 mg/kg by immunoblot analysis; format: functional, organism-based
BV-2 [21] = assay: Antioxidant activity in H2O2 treated mouse BV-2 cells assessed as nuclear translocation of NRF2 at 5 to 20 uM by immunofluorescence analysis; format: functional, cell-based; settings: dose 5-20 µM
Mus musculus [22] = assay: In vivo antiinflammatory activity in scopolamine induced cognitive impaired ICR mouse assessed as decrease in IL-1 levels in cortex; format: functional, organism-based
Mus musculus [23] = assay: In vivo antiinflammatory activity in scopolamine induced cognitive impaired ICR mouse assessed as decrease in Iba1 levels in cortex; format: functional, organism-based
Mus musculus [24] = assay: In vivo antiinflammatory activity in scopolamine induced cognitive impaired ICR mouse assessed as decrease in Iba1 levels in hippocampus by immunoblot analysis; format: functional, organism-based
Mus musculus [25] = assay: In vivo antiinflammatory activity in scopolamine induced cognitive impaired ICR mouse assessed as decrease in GFAP levels in hippocampus by immunoblot analysis; format: functional, organism-based

T1 sequence (P05067 whole entry): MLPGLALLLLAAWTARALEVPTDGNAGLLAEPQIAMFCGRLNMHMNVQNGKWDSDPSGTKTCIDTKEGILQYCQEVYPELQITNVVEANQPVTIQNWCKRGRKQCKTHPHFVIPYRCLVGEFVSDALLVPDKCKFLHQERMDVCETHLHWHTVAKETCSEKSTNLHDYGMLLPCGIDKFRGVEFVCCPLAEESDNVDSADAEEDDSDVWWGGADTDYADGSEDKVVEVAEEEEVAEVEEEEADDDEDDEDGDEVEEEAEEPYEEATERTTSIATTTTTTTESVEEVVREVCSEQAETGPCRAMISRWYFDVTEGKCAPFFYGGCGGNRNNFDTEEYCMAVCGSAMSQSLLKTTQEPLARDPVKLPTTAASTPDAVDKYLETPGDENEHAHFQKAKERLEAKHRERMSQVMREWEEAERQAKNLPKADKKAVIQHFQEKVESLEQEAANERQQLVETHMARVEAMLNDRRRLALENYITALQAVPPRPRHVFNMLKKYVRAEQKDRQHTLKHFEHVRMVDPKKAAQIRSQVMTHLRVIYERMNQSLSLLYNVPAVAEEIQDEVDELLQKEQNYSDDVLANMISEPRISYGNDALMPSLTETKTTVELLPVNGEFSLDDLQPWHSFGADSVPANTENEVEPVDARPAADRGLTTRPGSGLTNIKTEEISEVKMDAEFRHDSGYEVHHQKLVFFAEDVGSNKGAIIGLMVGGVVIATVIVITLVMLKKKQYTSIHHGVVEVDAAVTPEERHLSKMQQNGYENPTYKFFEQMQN

With `O=c1ccoc(/C=C/c2ccc(O)c(O)c2)c1O` the inhibition [1] was 90.4%, the Activity [2] was “inactive” and the inhibition [3] was “Active”. The Activity [4] was “Active”, the inhibition [5] was “Active” and the Activity (BV-2 [6]) was “Dose-Dependent Effect”. It also gave a viability at 2.5 µM (BV-2 [7]) of 76.2%, an Activity (BV-2 [8]) of 13.4% and an Activity (BV-2 [9]) of 13.4%. The Cmax [10] was 14.4 ng/mL, the AUC(0-t) [11] was 24.4 ng·h/mL and the concentration at 0.167 h [12] was 1.41 ng/mL. The concentration at 0.5 h [13] was 5.4 ng/mL, the concentration at 1 h [14] was 8.72 ng/mL and the concentration at 4 h [15] was 4.89 ng/mL. The Kp at 2 h [16] was 7.12, the Activity [17] was “Non-Toxic” and the Activity [18] was “Non-Toxic”. For the same molecule, the Activity (Mus musculus [19]) was “Active”, the Activity (Mus musculus [20]) was “Active” and the Activity (BV-2 [21]) was “Active”. The Activity (Mus musculus [22]) was “Active”, the Activity (Mus musculus [23]) was “Active” and the Activity (Mus musculus [24]) was “Active”. For the same molecule, the Activity (Mus musculus [25]) was “Active”.
